# Measurements from PubChem BioAssay (NCI).
# Several values for one entry are separate records, joined by “and”; a condition that tells them apart may be missing. Equal entries are not always repeated.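 Cultured in 96-well plates, cells were exposed to test compound for 48 hours across five concentrations. The concentration for 50% growth inhibition is given as GI50. At the TGI there is no net growth.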
# Experiments:
# Test in all cases: DTP human tumour cell line panel, 48 h
# [1] = test system: NCI/ADR-RES ovarian
# [2] = test system: MDA-MB-435
# [3] = test system: MCF7 breast
# [4] = test system: MDA-N
# [5] = test system: DMS 114 small cell lung
# [6] = test system: LXFL 529 NSCLC
# [7] = test system: KM20L2 colon
# [8] = test system: XF 498 CNS
# [9] = test system: RXF-631 renal
SMILES,GI50 [1],TGI [1],GI50 [2],TGI [2],TGI [3],TGI [5],TGI [6],TGI [7],GI50 [3],also measured
CC(C)c1ccc2c(c1)CC[C@@H]1[C@@](C)(C(=O)O)CCC[C@]21C,17.8 µM,57 µM,10.9 µM,29.5 µM,–,–,–,–,–,–
CS(=O)(=O)Nc1ccc2c(c1)oc(=O)c1ccccc12,–,> 100 µM,–,> 100 µM,> 100 µM,–,–,–,–,TGI [4]: > 100 µM
CCOC(=O)C1(C#N)C(c2ccccc2)CC(O)(c2ccc(OC)cc2)C(C(=O)c2ccc(OC)cc2)C1c1ccccc1 (stereo unspecified),–,–,–,–,–,> 100 µM,> 100 µM,> 100 µM,–,–
CN(C)c1ccc(C(C=C2c3ccccc3Sc3ccccc32)=C(C#N)C#N)cc1,–,–,–,–,–,> 100 µM,> 100 µM,> 100 µM,–,TGI [8]: > 100 µM; TGI [9]: > 100 µM
C=C1C(=O)OC2CCN3CC=C(COC(=O)C(C)(O)C4(CO4)C1C)C23 (stereo unspecified),–,> 100 µM,–,> 100 µM,> 100 µM,–,–,–,–,TGI [4]: > 100 µM
C=C(CNCc1ccccc1)c1ccc(C(=O)Nc2ccccc2N)cc1,3.21 µM,18.8 µM,5.24 µM,27.7 µM,> 100 µM,–,–,–,41.1 µM,–
O=C1/C(=C/c2ccc(Br)cc2)COc2ccc(O)c(O)c21,0.665 µM,> 25.8 µM,0.427 µM,1.59 µM,1.67 µM,–,–,–,0.353 µM,–
O=C(Nc1ccc(Cl)cc1F)c1ccccc1O,2.44 µM,7.61 µM,3.37 µM,30.7 µM,12.6 µM,–,–,–,1.5 µM,–
CCN(CC)CCOc1ccc(-c2nc3cc(Cl)ccc3s2)cc1,1.97 µM,3.87 µM,1.65 µM,3.18 µM,2.83 µM,–,–,–,1.45 µM,–
COC(=O)C(=Cc1cc(OC)ccc1OC)C(=O)OC,–,–,–,–,–,53.1 µM,36 µM,–,–,TGI [8]: 47.4 µM; TGI [9]: 88.3 µM
Cc1cc([N+](=O)[O-])ccc1Nc1cccc(Cl)c1C,–,–,–,–,–,28.9 µM,28.3 µM,29.8 µM,–,TGI [9]: 31.3 µM
Cc1ccc(C)c(C2=C(c3cn(C)c4ccccc34)C(=O)NC2=O)c1,> 25 µM,> 25 µM,24 µM,> 25 µM,> 25 µM,–,–,–,6.81 µM,–
Cc1ccc(Cc2c(=O)[nH]nc3ccccc23)cc1,–,–,–,–,–,> 100 µM,–,> 100 µM,–,TGI [8]: > 100 µM; TGI [9]: > 100 µM
COc1cnc2c(c1)C(=O)c1c-2n(CCCNC(C)C)c(=O)c2cc(Cl)ccc12,0.301 µM,2.75 µM,1.14 µM,2.42 µM,–,–,–,–,–,–
CCN(CC)CCC(CNc1ccnc2cc(Cl)ccc12)c1ccc(OC)cc1 (stereo unspecified),8.66 µM and 7.57 µM,47.5 µM and 34.3 µM,1.91 µM and 1.65 µM,4.12 µM and 3.71 µM,21.1 µM and 17.9 µM,–,–,–,4.98 µM and 4.5 µM,–
O=C(Nc1nc2ccc(C(F)(F)F)cc2s1)c1cc(Cl)ccc1O,0.841 µM,> 100 µM,1.69 µM,> 100 µM,> 100 µM,–,–,–,2.18 µM,–
CCCN=C(N)NC#N,–,–,–,–,–,35.8 µM,> 100 µM,> 100 µM,–,–

SMILES,GI50 [1],TGI [1],GI50 [2],TGI [2],TGI [3],TGI [5],TGI [6],TGI [7],GI50 [3],also measured
N#Cc1c(NN)n(C2OC(CO)C(O)C2O)c2ncnc(N)c12 (stereo unspecified),0.283 µM,4.17 µM,0.104 µM,0.916 µM,2.87 µM,–,–,–,0.0315 µM,–
O=C(CNc1ccc(Cl)cc1)Nc1ccc(-c2nc3ccccc3s2)cc1,3.42 µM,11.4 µM,3.91 µM,16.6 µM,6.5 µM,–,–,–,0.0697 µM,–
COc1ccc(C(=O)C(c2ccc(OC)cc2)C2(O)C(=O)Nc3ccc([N+](=O)[O-])cc32)cc1 (stereo unspecified),–,–,–,–,–,> 100 µM,> 100 µM,> 100 µM,–,–
NC(=O)NC1C(c2ccccc2)=C1c1ccccc1,–,27 µM,–,40.3 µM,33.6 µM,–,–,–,–,TGI [4]: 34.4 µM
COc1ccc(-n2cc(-c3cc(OC)c(OC)c(OC)c3)c(C(=O)C(F)(F)F)c2C)cc1,25.8 µM,> 100 µM,43.3 µM,> 100 µM,> 100 µM,–,–,–,14.2 µM,–
COc1ccc2c3c([nH]c2c1[N+](=O)[O-])C(C)=NCC3,–,–,–,–,–,> 100 µM,> 100 µM,> 100 µM,–,TGI [9]: > 100 µM
CC1=NNC(=O)C2CCC(=O)N12 (stereo unspecified),–,–,–,–,–,> 100 µM,> 100 µM,> 100 µM,–,TGI [9]: > 100 µM
COc1cc(C2CC(c3cccc(Br)c3)=NN2C(C)=O)cc(OC)c1OC (stereo unspecified),0.324 µM,34 µM,0.0514 µM,0.297 µM,27.1 µM,–,–,–,0.208 µM,–
N#Cc1nc(Nc2cccc3ccccc23)sc1N,–,–,–,–,–,–,> 100 µM,> 100 µM,–,TGI [8]: > 100 µM
CCOC(=O)CCCn1c(SC)nc2[nH]cc(-c3ccccc3)c2c1=O,18.9 µM,53.1 µM,19.4 µM,42.4 µM,76.6 µM,–,–,–,18.4 µM,–
CC(CCC=O)CCOCc1ccccc1 (stereo unspecified),–,> 100 µM,–,> 100 µM,22.7 µM,> 100 µM,> 100 µM,> 100 µM,–,TGI [8]: > 100 µM; TGI [4]: > 100 µM
CCN1CCN(C(c2ccc(C(F)(F)F)cc2)c2ccc3cccnc3c2O)CC1 (stereo unspecified),1.77 µM,10.9 µM,3.76 µM,17.8 µM,14.9 µM,–,–,–,3.46 µM,–
O=C(/C=C/c1ccccc1O)c1ccccc1O,–,–,–,–,–,> 100 µM,–,> 100 µM,–,–
O=C(O)C1C2C=CC(O2)C1C(=O)NCc1ccccn1 (stereo unspecified),–,> 100 µM,–,> 100 µM,> 100 µM,–,–,–,–,TGI [4]: > 100 µM
O=C1c2cccc(NCCCNCCO)c2C(=O)c2cccc(NCCCNCCO)c21,–,28.6 µM,–,3.06 µM,1.41 µM,1.92 µM and 4.77 µM,2.95 µM and 10.1 µM,6.72 µM and 9.95 µM,–,GI50 [5]: 0.476 µM and 1.24 µM; GI50 [6]: 0.844 µM and 2.22 µM; GI50 [8]: 0.827 µM and 2.41 µM; TGI [8]: 2.4 µM and 7.26 µM; TGI [4]: 3.23 µM
Clc1nc2ccccc2nc1CI,4.1 µM,18.1 µM,2.35 µM,6.61 µM,11.9 µM,–,–,–,2.79 µM,–
